What all share (format): in vivo
Series [1] concerns 2-methylisoborneol. The series can be described thus: DNA1-19-1 second and third pond efficacy studies: MIB levels. The settings on record: second and third efficacy study; 1, 0.3, and 0.1 μM. As to the method: (§1) The method described by Schrader et al. (2000) was used to determine the potential for using the anthraquinone derivatives as selective algicides in catfish aquaculture ponds. All catfish ponds used in efficacy tests were maintained using commercial pond management practices and were located at the Thad Cochran Pond Facility, Mississippi State University, Stoneville, Miss. Anthraquinone analogs were dissolved in deionized water before application to water within the limnocorrals.
(§2) Limnocorrals in which test compound was applied to the enclosed water were randomly selected, and control (no test compound applied) limnocorrals were included in each efficacy study. For each sampling, two water samples (250 mL) were obtained from within each limnocorral (approximately 6-8 cm below the water surface and from opposite sides of each limnocorral) and mixed together in a 500 mL sample bottle to provide a representative sample of the water contained within the limnocorral.
In the second study with DNA1-19-1, twelve limnocorrals that were the same size as those used in the first study were placed in another 4-ha earthen catfish pond. […] The sampling regime and procedures used in the first study were followed in a similar manner, except that water samples were obtained before DNA1-19-1 application, 16 hours after application, and at days 2, 4, and 7. […]

In series [2] the test system is Oscillatoria perornata. The series can be described thus: DNA2-59-1 first pond efficacy study: O. perornata abundance. The settings on record: first study, 0.1, 0.3 and 1 μM. As to the method: as §1
(§3) Limnocorrals in which test compound was applied to the enclosed water were randomly selected, and control (no test compound applied) limnocorrals were included in each efficacy study. […]
(§4) In the first study, application rates of 0.1 μM (37.7 μg/L), 0.3 μM ([…]), and 1.0 μM (377 μg/L) of DNA2-59-1 were tested using limnocorrals (three replicates per concentration) that were of the same type used for testing DNA1-19-1. […] Water samples were also analyzed to determine the persistence of DNA2-59-1 in the pond water, and this analysis was performed by using high-pressure liquid chromatography (HPLC) (method and results are described later).

Series [3] relates to 2-methylisoborneol. Description: DNA2-59-1 first pond efficacy study: MIB levels. The settings on record: 0.3 and 1 μM. The protocol: as §1, §3, §4
Series [4] has as its system Oscillatoria perornata. The series can be described thus: DNA2-59-1 second pond efficacy study: O. perornata abundance. Conditions: 0.3 μM, within three days of application. As to the method: as §1, §2
(§5) In the second efficacy test with DNA2-59-1, six limnocorrals (1.53 m in diameter and 1.53 m high) were placed in a 0.1-ha earthen pond containing a heavy bloom of O. perornata. The same delay in mixing the water within the limnocorrals used in the first efficacy study was utilized. Water within three randomly selected limnocorrals received an application rate of 0.3 μM DNA2-59-1, and the other three limnocorrals were controls. […]

In the next series the test system is green algae. The series can be described thus: DNA2-59-1 second pond efficacy study: green algae abundance. Conditions: 0.3 μM. The protocol:
as §1, §2, §5

Another series concerns chlorophyll a. Description: DNA2-59-1 third pond efficacy study: chlorophyll a. The settings on record: 0.3 μM, 24 hours after application. The protocol: as §1, §2
(§6) For the third efficacy test with DNA2-59-1, twelve limnocorrals (2.44 m in diameter and 1.53 m high) were placed in a 4-ha earthen pond containing a bloom of O. perornata. […]

Series [5] has as its system 2-methylisoborneol. The series can be described thus: DNA2-59-1 third pond efficacy study: MIB levels. The settings on record: 0.3 μM, 24 hours after application. As to the method: as §1, §2, §6
The test system of the next series is Cylindrospermopsis spp. The series can be described thus: DNA2-59-1 third pond efficacy study: Cylindrospermopsis spp. abundance. The settings on record: 0.3 μM, one day after application. The protocol:
as §1, §2, §6

A further series concerns Microcystis spp. Description: DNA2-59-1 third pond efficacy study: Microcystis spp. abundance. Conditions: 0.3 μM. The protocol: as §1, §2, §6

The structures appear in SMILES notation.

As for `CCN(CC)CCCC(C)NCc1ccc2c(c1)C(=O)c1ccccc1C2=O.O=P(O)(O)O.O=P(O)(O)O` (stereo not drawn) [DNA1-19-1, 2-[methylamino-N-(1′-methyl-4′-N,N-diethylaminobutyl)]-9,10-anthraquinone diphosphate], the “2-methylisoborneol levels compared to controls (result in words)” value in the series with 2-methylisoborneol [1] is on record as “lack of reduction”.
On to `CC(C)NCc1ccc2c(c1)C(=O)c1ccccc1C2=O` [DNA2-59-1, 2-[methylamino-N-(1′-methylethyl)]-9,10-anthraquinone monophosphate], for which, in the series with Oscillatoria perornata [2], the “numbers of O. perornata filaments compared to controls (result in words)” value is given as “significantly reduced”. Further, the “decrease of MIB levels compared to controls and 0.1 μM (result in words)” value in the series on 2-methylisoborneol [3] is “to a greater degree and significantly more”. Also, the “Numbers of O. perornata (result in words)” value in the series with Oscillatoria perornata [4] is “significantly and dramatically reduced”. Moreover, in the series on green algae, the “Green algae (result in words)” value is “not significantly affected”. Besides, the “Chlorophyll a levels (result in words)” value in the series with chlorophyll a is reported as “significantly reduced”. The “Levels of 2-methylisoborneol (result in words)” value with 2-methylisoborneol [5] is “significantly reduced”. In addition, the “Numbers of Cylindrospermopsis spp. (result in words)” value with Cylindrospermopsis spp. is recorded as “significantly reduced”. Also, the “Microcystis spp. compared to control limnocorrals (result in words)” value with Microcystis spp. was “not greatly affected”.
